Results: patent publication US11407740B2 (priority 2018, dated 2022)
Converted amounts (≈) assume the structure as drawn.

tested on: K. pneumoniae; experiment: Bacterial susceptibility testing, MIC by broth microdilution (CLSI); format: cell-based; conditions: 35° C., 18-24 h
Protocol: (§1) Minimal inhibitory concentrations (MIC) were determined by the broth microdilution method in accordance with the Clinical and Laboratory Standards Institute (CLSI) guidelines. In brief, organism suspensions were adjusted to a 0.5 McFarland standard to yield a final inoculum between 3×10^3 and 7×10^5 colony-forming units (CFU)/mL. Drug dilutions and inocula were made in sterile, cation adjusted Mueller-Hinton Broth (Beckton Dickinson). An inoculum volume of 100 μL was added to wells containing 100 μL of broth with 2-fold serial dilutions of drug.

| Structure (SMILES) | K. pneumoniae MIC |
| --- | --- |
| O=c1[nH]cnc(CC(CO)c2ccc(C#Cc3ccc(CN4CCNCC4)cc3)cc2)c1O (stereo not drawn) [Compound 54] | B (B: >1 μg/mL to ≤8.0 μg/mL) |

tested on: E. coli; experiment: as above; conditions: Escherichia coli, read-out: E. coli MIC, broth microdilution, 35° C., 18-24 h
Protocol: as §1

| Structure (SMILES) | MIC [µg/mL] |
| --- | --- |
| O=c1[nH]cnc(CC(CO)c2ccc(C#Cc3ccc(CN4CCNCC4)cc3)cc2)c1O (stereo not drawn) [Compound 54] | 1 to 8 (≈ 2.25 to 18 µM) |
| O=c1[nH]cnc(CC(CNCC(F)F)c2ccc(C#Cc3ccc(CN4CCOCC4)cc3)cc2)c1O (stereo not drawn) [Compound 115] | < 1 |
| O=c1[nH]cnc(CC(CNC2CC2)c2ccc(C#Cc3ccc(CN4CCOCC4)cc3)cc2)c1O (stereo not drawn) [Compound 118] | < 1 |
| COC1CN(Cc2ccc(C#Cc3ccc(C(Cc4nc[nH]c(=O)c4O)CN4C(=O)OC[C@@H]4C)cc3)cc2)C1 (stereo partly drawn) [Compound 121] | 1 to 8 (≈ 1.89 to 15.1 µM) |
| CS(=O)(=O)CCNCC(Cc1nc[nH]c(=O)c1O)c1ccc(C#Cc2ccc(CN3CCOCC3)cc2)cc1 (stereo not drawn) [Compound 128] | 1 to 8 (≈ 1.82 to 14.5 µM) |
| O=c1[nH]cnc(CC(CNCCO)c2ccc(C#Cc3ccc(CN4CCOCC4)cc3)cc2)c1O (stereo not drawn) [Compound 129] | 1 to 8 (≈ 2.05 to 16.4 µM) |
| N#CCCNCC(Cc1nc[nH]c(=O)c1O)c1ccc(C#Cc2ccc(CN3CCOCC3)cc2)cc1 (stereo not drawn) [Compound 130] | 1 to 8 (≈ 2.01 to 16.1 µM) |
| CC(NCC(F)F)C(Cc1nc[nH]c(=O)c1O)c1ccc(C#Cc2ccc(CN3CCOCC3)cc2)cc1 (stereo not drawn) [Compound 131] | 1 to 8 (≈ 1.91 to 15.3 µM) |
| N#CCCNCC(Cc1nc[nH]c(=O)c1O)c1ccc(C#Cc2ccc(CN3CC(CC#N)C3)cc2)cc1 (stereo not drawn) [Compound 134] | 8 to 32 (≈ 15.8 to 63.2 µM) |
| CC(F)CNCC(Cc1nc[nH]c(=O)c1O)c1ccc(C#Cc2ccc(CCN3CCOCC3)cc2)cc1 (stereo not drawn) [Compound 138] | 1 to 8 (≈ 1.93 to 15.4 µM) |
| O=c1[nH]cnc(CC(NCCCF)c2ccc(C#Cc3ccc(CN4CCOCC4)cc3)cc2)c1O (stereo not drawn) [Compound 139] | < 1 |
| CC(CF)NC(Cc1nc[nH]c(=O)c1O)c1ccc(C#Cc2ccc(CN3CCOCC3)cc2)cc1 (stereo not drawn) [Compound 141] | < 1 |
| N=S1(=O)CCC(NCc2ccc(C#Cc3ccc(C(CO)Cc4nc[nH]c(=O)c4O)cc3)cc2)CC1 (stereo not drawn) [Compound 149] | 1 to 8 (≈ 1.97 to 15.8 µM) |
| O=C(CO)N1CCN(Cc2ccc(C#Cc3ccc(C(CO)Cc4nc[nH]c(=O)c4O)cc3)cc2)CC1 (stereo not drawn) [Compound 152] | < 1 |
| O=C(C1CC1)N1CC[C@@H](NCc2ccc(C#Cc3ccc(C(CO)Cc4nc[nH]c(=O)c4O)cc3)cc2)C1 (stereo partly drawn) [Compound 153] | < 1 |
| O=C(CO)N1CCC(NCc2ccc(C#Cc3ccc(C(CO)Cc4nc[nH]c(=O)c4O)cc3)cc2)CC1 (stereo not drawn) [Compound 157] | 1 to 8 (≈ 1.94 to 15.5 µM) |
| COCCNCC(Cc1nc[nH]c(=O)c1O)c1ccc(C#Cc2ccc(CN3CCOCC3)cc2)cc1 (stereo not drawn) [Compound 164] | 1 to 8 (≈ 1.99 to 15.9 µM) |
| O=c1[nH]cnc(CC(NCCCCl)c2ccc(C#Cc3ccc(CN4CCOCC4)cc3)cc2)c1O (stereo not drawn) [Compound 172] | < 1 |
| COC1CCN(Cc2ccc(C#Cc3ccc(C(N)Cc4nc[nH]c(=O)c4O)cc3)cc2)CC1 (stereo not drawn) [Compound 174] | < 1 |
| COC1CN(Cc2ccc(C#Cc3ccc(C(Cc4nc[nH]c(=O)c4O)CN4CC(OC)C4)cc3)cc2)C1 (stereo not drawn) [Compound 175] | 1 to 8 (≈ 1.94 to 15.5 µM) |

| Structure (SMILES) | MIC [µg/mL] |
| --- | --- |
| O=c1[nH]cnc(CC(CN2CCC2)c2ccc(C#Cc3ccc(CN4CCOCC4)cc3)cc2)c1O (stereo not drawn) [Compound 177] | < 1 |
| O=c1[nH]cnc(CC(CNCc2ccn[nH]2)c2ccc(C#Cc3ccc(CN4CCOCC4)cc3)cc2)c1O (stereo not drawn) [Compound 184] | 1 to 8 (≈ 1.91 to 15.2 µM) |
| COCC(Cc1nc[nH]c(=O)c1O)c1ccc(C#Cc2ccc(CN3CCOCC3)cc2)cc1 (stereo not drawn) [Compound 190] | < 1 |
| O=C(NCC(F)F)C(Cc1nc[nH]c(=O)c1O)N1Cc2cc(C#Cc3ccc(CN4CCOCC4)cc3)cn2C1=O (stereo not drawn) [Compound 191] | < 1 |
| COC(=O)C(Cc1nc[nH]c(=O)c1O)N1Cc2cc(C#Cc3ccc(CN4CCOCC4)cc3)cn2C1=O (stereo not drawn) [Compound 192] | 1 to 8 (≈ 1.93 to 15.5 µM) |
| O=C1N(C(CO)Cc2nc[nH]c(=O)c2O)Cc2cc(C#Cc3ccc(CN4CCOCC4)cc3)cn21 (stereo not drawn) [Compound 193] | 1 to 8 (≈ 2.04 to 16.3 µM) |
| O=c1[nH]cnc(CC(CO)c2ccc(C#Cc3cnn(CC4CCOCC4)c3)cc2)c1O (stereo not drawn) [Compound 194] | 1 to 8 (≈ 2.3 to 18.4 µM) |
| O=c1[nH]cnc(CC(CO)c2ccc(C#Cc3ccc(CN4CCOCC4)nc3)cc2)c1O (stereo not drawn) [Compound 195] | 1 to 8 (≈ 2.24 to 17.9 µM) |
| O=c1[nH]cnc(CC(CO)c2ccc(C#Cc3ccc(CN4CCOCC4)cc3)cn2)c1O (stereo not drawn) [Compound 196] | 1 to 8 (≈ 2.24 to 17.9 µM) |
| Cn1cc(C#Cc2ccc(C(CO)Cc3nc[nH]c(=O)c3O)cc2)cn1 (stereo not drawn) [Compound 197] | 8 to 32 (≈ 22.8 to 91.3 µM) |
| Cn1cc(C#Cc2ccc(C(CNCCF)Cc3nc[nH]c(=O)c3O)cc2)cn1 (stereo not drawn) [Compound 199] | 1 to 8 (≈ 2.53 to 20.2 µM) |
| Cn1cc(C#Cc2ccc(C(N)Cc3nc[nH]c(=O)c3O)cc2)cn1 (stereo not drawn) [Compound 200] | 1 to 8 (≈ 2.98 to 23.9 µM) |
| O=c1[nH]cnc(CC(CO)c2ccc(C#Cc3cnn(C4CCOCC4)c3)cc2)c1O (stereo not drawn) [Compound 202] | 1 to 8 (≈ 2.38 to 19 µM) |
| O=C1N(C(CO)Cc2nc[nH]c(=O)c2O)Cc2cc(-c3ccc(CCN4CCOCC4)cc3)cn21 (stereo not drawn) [Compound 203] | 1 to 8 (≈ 2.09 to 16.7 µM) |
| O=c1[nH]cnc(C[C@H](CO)c2ccc(C#C[C@H]3CC[C@H](CN4CCOCC4)CC3)cc2)c1O [Compound 204] | 8 to 32 (≈ 17.7 to 70.9 µM) |
| O=c1[nH]cnc(CC(CNCCF)c2ccc(C#Cc3cnn(C4CCOCC4)c3)cc2)c1O (stereo not drawn) [Compound 205] | 1 to 8 (≈ 2.15 to 17.2 µM) |
| O=c1[nH]cnc(CC(CNCCF)c2ccc(C#Cc3cnn(CC4CCOCC4)c3)cc2)c1O (stereo not drawn) [Compound 206] | 1 to 8 (≈ 2.09 to 16.7 µM) |
| O=c1[nH]cnc(CC(CNCCF)c2ccc(C#Cc3ccn4cncc4c3)cc2)c1O (stereo not drawn) [Compound 207] | 1 to 8 (≈ 2.32 to 18.5 µM) |
| O=c1[nH]cnc(CC(CNCCF)c2ccc(C#Cc3cnn(C4COC4)c3)cc2)c1O (stereo not drawn) [Compound 208] | 1 to 8 (≈ 2.29 to 18.3 µM) |
| O=c1[nH]cnc(CC2CCc3cc(C#Cc4ccc(CN5CCOCC5)cc4)ccc32)c1O (stereo not drawn) [Compound 209] | 1 to 8 (≈ 2.26 to 18.1 µM) |

| Structure (SMILES) | MIC [µg/mL] |
| --- | --- |
| O=C1NC(Cc2nc[nH]c(=O)c2O)c2ccc(C#Cc3ccc(CN4CCOCC4)cc3)cc21 (stereo not drawn) [Compound 210] | 1 to 8 (≈ 2.19 to 17.5 µM) |
| O=c1[nH]cnc(CC(CO)n2ccc(C#Cc3ccc(CN4CCOCC4)cc3)cc2=O)c1O (stereo not drawn) [Compound 211] | 8 to 32 (≈ 17.3 to 69.2 µM) |
| O=C(O)C(Cc1nc[nH]c(=O)c1O)N1Cc2cc(-c3ccc(CCN4CCOCC4)cc3)cn2C1=O (stereo not drawn) [Compound 212] | > 32 |
| NC(Cc1nc[nH]c(=O)c1O)c1ccc(-c2ccc(CCN3CCOCC3)cc2)cc1 (stereo not drawn) [Compound 214] | 8 to 32 (≈ 19 to 76.1 µM) |
| COC1CN(Cc2ccc(C#Cc3ccc(C(CNC(C)(C)CF)Cc4nc[nH]c(=O)c4O)cc3)cc2)C1 (stereo not drawn) [Compound 221] | < 1 |
| COC1CN(Cc2ccc(C#Cc3ccc(C(CNC4CC4)Cc4nc[nH]c(=O)c4O)cc3)cc2)C1 (stereo not drawn) [Compound 223] | < 1 |
| COC1CN(Cc2ccc(C#Cc3ccc(C(CNC4CC4)Cc4nc[nH]c(=O)c4O)c(F)c3)cc2)C1 (stereo not drawn) [Compound 225] | < 1 |
| O=c1[nH]cnc(CC(CN2CC(O)C2)c2ccc(C#Cc3ccc(CN4CCOCC4)cc3)cc2F)c1O (stereo not drawn) [Compound 231] | < 1 |
| O=C(CO)NC1CCN(Cc2ccc(C#Cc3ccc(C(CO)Cc4nc[nH]c(=O)c4O)cc3)cc2)CC1 (stereo not drawn) [Compound 240] | < 1 |
| COC1CN(Cc2ccc(C#Cc3ccc(C(CNC(CO)CF)Cc4nc[nH]c(=O)c4O)cc3)cc2)C1 (stereo not drawn) [Compound 244] | 1 to 8 (≈ 1.92 to 15.4 µM) |
| COC1CN(Cc2ccc(C#Cc3ccc(C(CNCC(F)CO)Cc4nc[nH]c(=O)c4O)cc3)cc2)C1 (stereo not drawn) [Compound 249] | 1 to 8 (≈ 1.92 to 15.4 µM) |
| NCC1CN(Cc2ccc(C#Cc3ccc(C(CO)Cc4nc[nH]c(=O)c4O)cc3)cc2)CCO1 (stereo not drawn) [Compound 258] | 1 to 8 (≈ 2.11 to 16.9 µM) |
| O=c1[nH]cnc(CC(CO)c2ccc(C#Cc3ccc(CNC4CCNCC4)cc3)cc2)c1O (stereo not drawn) [Compound 259] | 1 to 8 (≈ 2.18 to 17.4 µM) |
| NCC(=O)N1CCC(C#Cc2ccc(C(CO)Cc3nc[nH]c(=O)c3O)cc2)CC1 (stereo not drawn) [Compound 263] | > 32 |
| O=C(CO)N1CCC(C#Cc2ccc(C(CO)Cc3nc[nH]c(=O)c3O)cc2)CC1 (stereo not drawn) [Compound 264] | > 32 |
| CS(=O)(=O)NC(Cc1nc[nH]c(=O)c1O)c1ccc(C#Cc2ccc(CN3CCOCC3)cc2)cc1 (stereo not drawn) [Compound 289] | < 1 |
| CS(=O)(=O)N[C@H](Cc1nc[nH]c(=O)c1O)c1ccc(C#Cc2ccc(CN3CCNC[C@H]3CO)cc2)cc1 [Compound 291] | < 1 |
| CC(C)(CF)NCC(Cc1nc[nH]c(=O)c1O)c1ccc(C#Cc2ccc(CN3CCOCC3)cc2)cc1 (stereo not drawn) [Compound 301] | < 1 |
| Cc1nccn1CC(Cc1nc[nH]c(=O)c1O)c1ccc(C#Cc2ccc(CN3CCOCC3)cc2)cc1 (stereo not drawn) [Compound 305] | < 1 |

same assay, conditions: broth microdilution, 35° C., 18-24 h

| Structure (SMILES) | E. coli MIC |
| --- | --- |
| O=c1[nH]cnc(CC(CNC2CC(F)(F)C2)c2ccc(C#Cc3ccc(CN4CCOCC4)cc3)cc2)c1O (stereo not drawn) [Compound 114] | B (B: >1 μg/mL to ≤8.0 μg/mL) |
| O=c1[nH]cnc(CC(CNC2CC2)c2ccc(C#Cc3ccc(CN4CCOCC4)cc3)cc2)c1O (stereo not drawn) [Compound 119] | A (A: ≤1 μg/mL) |
| O=c1[nH]cnc(CC(CNC2CC2)c2ccc(C#Cc3ccc(CN4CCOCC4)cc3)cc2)c1O (stereo not drawn) [Compound 120] | B (B: >1 μg/mL to ≤8.0 μg/mL) |
| COC1CN(Cc2ccc(C#Cc3ccc(C(Cc4nc[nH]c(=O)c4O)CN4C(=O)OC[C@@H]4C)cc3)cc2)C1 (stereo partly drawn) [Compound 122] | A (A: ≤1 μg/mL) |
| COC1CN(Cc2ccc(C#Cc3ccc(C(Cc4nc[nH]c(=O)c4O)CN4CC(F)C4)cc3)cc2)C1 (stereo not drawn) [Compound 159] | A (A: ≤1 μg/mL) |
| COC1CN(Cc2ccc(C#Cc3ccc(C(Cc4nc[nH]c(=O)c4O)CN4CC(F)C4)cc3)cc2)C1 (stereo not drawn) [Compound 160] | A (A: ≤1 μg/mL) |
| COC1CN(Cc2ccc(C#Cc3ccc(C(Cc4nc[nH]c(=O)c4O)CN4CC(OC)C4)cc3)cc2)C1 (stereo not drawn) [Compound 176] | A (A: ≤1 μg/mL) |
| COC1CN(Cc2ccc(C#Cc3ccc(C(Cc4nc[nH]c(=O)c4O)CN4CC(F)C4)cc3)cc2)C1 (stereo not drawn) [Compound 180] | C (C: >8.0 μg/mL to ≤32 μg/mL) |
| COC1CN(Cc2ccc(C#Cc3ccc(C(Cc4nc[nH]c(=O)c4O)CN4CC(F)C4)cc3)cc2)C1 (stereo not drawn) [Compound 181] | B (B: >1 μg/mL to ≤8.0 μg/mL) |
| COC1CN(Cc2ccc(C#Cc3ccc(C(CNC4CC4)Cc4nc[nH]c(=O)c4O)cc3)cc2)C1 (stereo not drawn) [Compound 224] | B (B: >1 μg/mL to ≤8.0 μg/mL) |
| O=C(CO)NC1CCN(Cc2ccc(C#Cc3ccc(C(CO)Cc4nc[nH]c(=O)c4O)cc3)cc2)CC1 (stereo not drawn) [Compound 241] | B (B: >1 μg/mL to ≤8.0 μg/mL) |
| O=C(CO)NC1CCN(Cc2ccc(C#Cc3ccc(C(CO)Cc4nc[nH]c(=O)c4O)cc3)cc2)CC1 (stereo not drawn) [Compound 242] | A (A: ≤1 μg/mL) |
